The source of these data is patent publication US20080125469A1, “Thiadiazole compounds and methods of use thereof” (Wyeth, priority 2006, published 2008).

The pIC50 is the IC50 on a negative log10 scale, so that one unit is a factor of ten. As usually defined, the % Inhibition is the share of the control response that was lost under treatment. What is called inhibition is the share of the control response that was lost under treatment.

pIC50: −log10 of the molar value.

One experiment addresses T1, purified recombinant human Aggrecanase-2 (Agg2-Phe628) (Homo sapiens, UniProt Q9UNA0).
T1 construct: (Agg2-Phe628) (MW=41,737), which is a truncated form of full-length human aggrecanase-2; made in house; host or cells: CHO cells
T1 sequence (Q9UNA0 262-628 limits assumed): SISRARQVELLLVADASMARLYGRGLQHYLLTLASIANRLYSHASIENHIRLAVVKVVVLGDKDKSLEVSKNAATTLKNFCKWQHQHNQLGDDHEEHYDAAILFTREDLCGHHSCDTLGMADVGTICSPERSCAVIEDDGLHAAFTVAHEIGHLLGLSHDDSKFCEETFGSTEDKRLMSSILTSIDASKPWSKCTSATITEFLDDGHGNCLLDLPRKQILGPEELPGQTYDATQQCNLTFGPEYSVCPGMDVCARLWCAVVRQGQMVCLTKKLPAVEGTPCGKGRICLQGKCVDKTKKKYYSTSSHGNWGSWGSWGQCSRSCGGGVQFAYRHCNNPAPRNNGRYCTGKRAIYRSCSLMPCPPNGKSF
As to the kind of experiment: Aggrecanase 2 continuous in vitro fluorescence assay. It is filed as biochemical. To be noted: Agg2-Phe628 0.5 μg/ml, substrate 25 μM, 30° C.; read-out: IC50.
Experimental: A continuous vitro fluorescence assay was employed, wherein the enzyme used in the assay was a purified recombinant human Aggrecanase-2 (Agg2-Phe628) (MW=41,737), which is a truncated form of full-length human aggrecanase-2 that was expressed in CHO cells and purified prior to use. The final concentration of Agg2-Phe628 was 0.5 μg/ml. The buffer used in this assay was 50 mM HEPES, pH 7.5, 100 mM NaCl, 5 mM CaCl2, 0.1% CHAPS, 5% glycerol. The substrate used in the assay was a synthetic peptide having the sequence ABz-[sequence]-Dap(Dnp)-KK—NH2 (>95% pure by HPLC, AnaSpec, Inc.), wherein Abz refers to ortho-aminobenzyl, a fluorescent group which is quenched by energy transfer to a 2,4-dinitrophenyl group. The final concentration of substrate in the assay was 25 μM and was spectrophotometrically determined using the extinction coefficient at 354 nm of 18,172 M^−1cm^−1. The Vmax and Km for this enzyme/substrate reaction were determined to be insensitive to DMSO up to at least 10% (v/v).
The total reaction volume was 100 μl. The buffer and enzyme were added first followed by addition of 10× inhibitor from the dilution plate. Separate enzyme and buffer samples were included in order to obtain the maximal rate of substrate cleavage. The reaction was allowed to stand at 30° C. for 15 minutes, then substrate was added, the resultant solution was mixed. The resultant reaction was allowed to progress, with monitoring, for 40 minutes at 30° C. in kinetic mode using λex: 340 nm and λem: 420 (GeminiXS Molecular Devices).
The fluorescence intensity is linear during the time of data collection. The slope of the line (Vmax/sec) represents the initial reaction rate, ν. The maximal rate of cleavage of substrate was determined in the absence of inhibitor. The percent inhibition of activity in the presence of inhibitor was calculated using the following equation:
% inhibition=(1−ν(RFU/sec))/Maximal Rate(RFU/sec))*100
The IC50 was obtained by fitting the initial rate, ν or % inhibition at each concentration of inhibitor to the following equation:
This model describes a sigmoidal curve with an adjustable baseline, wherein:
y is the % inhibition or initial rate of reaction;
C is the concentration of inhibitor under test;
a is the limiting response as C approaches zero. As C increases without bound y tends toward its lower limit, d;
y is halfway between the lower and upper asymptotes when C=IC50; and
n is the Hill coefficient. The sign of n is positive when the response increases with increasing dose and is negative when the response decreases with increasing dose (inhibition).
As to `C=CCN1C(=O)C2(NN=C(c3ccccc3)S2)c2ccccc21` (stereo not shown) [Compound 41, 1-allyl-5′-phenyl-3′H-spiro[indole-3,2′-[1,3,4]thiadiazol]-2(1H)-one], the pIC50 is 5.31.
As for `CC(C)N1C(=O)C2(NN=C(c3ccccc3)S2)c2ccccc21` (stereo not shown) [Compound 42, 1-isopropyl-5′-phenyl-3′H-spiro[indole-3,2′-[1,3,4]thiadiazol]-2(1H)-one], the negative-log IC50 (pIC50) is 5.52.
Consider `CCc1ccc2c(c1)C1(NN=C(c3ccc(F)cc3)S1)C(=O)N2` (stereo not shown) [Compound 43, 5-ethyl-5′-(4-fluorophenyl)-3′H-spiro[indole-3,2′-[1,3,4]thiadiazol]-2(1H)-one], for which the pIC50 is 5.53.
Take `CCc1ccc2c(c1)C1(NN=C(c3ccc(C(C)(C)C)cc3)S1)C(=O)N2` (stereo not shown) [Compound 44, 5′-(4-tert-butylphenyl)-5-ethyl-3′H-spiro[indole-3,2′-[1,3,4]thiadiazol]-2(1H)-one]: the pIC50 is 5.78.
The same measure, in the same setting: in the case of `CCCC(=O)N1C(=O)C2(NN=C(c3ccc(C)cc3)S2)c2cc(CC)ccc21` (stereo not shown) [Compound 45, 1-butyryl-5-ethyl-5′-(4-methylphenyl)-3′H-spiro[indole-3,2′-[1,3,4]thiadiazol]-2(1H)-one] it was 5.84; in that of `CCCC(=O)N1C(=O)C2(NN=C(c3ccc(OC)cc3)S2)c2cc(CC)ccc21` (stereo not shown) [Compound 46, 1-butyryl-5-ethyl-5′-(4-methoxyphenyl)-3′H-spiro[indole-3,2′-[1,3,4]thiadiazol]-2(1H)-one], 5.82; in that of `CN1C(=O)C2(NN=C(c3ccccc3)S2)c2ccccc21` (stereo not shown) [Compound 52, 1-methyl-5′-phenyl-3′H-spiro[indoline-3,2′-[1,3,4]thiadiazol]-2-one], 4.62.
`O=C1Nc2ccccc2C12NN=C(c1ccccc1)S2` (stereo not shown) [Compound 53, 5′-phenyl-3′H-spiro[indoline-3,2′-[1,3,4]thiadiazol]-2-one]: the pIC50 is 4.52.
On to `O=C1Nc2ccc(Br)cc2C12NN=C(c1ccccc1)S2` (stereo not shown) [Compound 54, 5-bromo-5′-phenyl-3′H-spiro[indoline-3,2′-[1,3,4]thiadiazol]-2-one], for which the negative logarithm of the IC50 (pIC50) was 4.87.
For the compound `Cc1ccc2c(c1)C1(NN=C(c3ccccc3)S1)C(=O)N2` (stereo not shown) [Compound 55, 5-methyl-5′-phenyl-3′H-spiro[indoline-3,2′-[1,3,4]thiadiazol]-2-one], the negative logarithm of the IC50 (pIC50) is 4.95.
For `CC(=O)N1C(=O)C2(NN=C(c3ccccc3)S2)c2ccccc21` (stereo not shown) [Compound 56, 1-acetyl-5′-phenyl-3′H-spiro[indoline-3,2′-[1,3,4]thiadiazol]-2-one], the negative logarithm of the IC50 (pIC50) was 4.90.
As for “ethyl [5′-(4-methoxyphenyl)-2-oxo-3′H-spiro[indole-3,2′-[1,3,4]thiadiazol]-1(2H)-yl]acetate [Compound 9]”, the pIC50 is 5.43.

Staying with this experiment, now noted: inhibitor concentration not given.
Take `O=C1Nc2c(Cl)ccc(Cl)c2C12NN=C(c1ccccc1)S2` (stereo not shown) [Compound 40, 4,7-dichloro-5′-phenyl-3′H-spiro[indole-3,2′-[1,3,4]thiadiazol]-2(1H)-one]: the “% Inhibition” value is 39%.
On to `CCc1ccc2c(c1)C1(NN=C(c3ccccc3)S1)C(=O)N2` (stereo not shown) [Compound 47, 5-ethyl-5′-phenyl-3′H-spiro[indole-3,2′-[1,3,4]thiadiazol]-2(1H)-one], for which the “% Inhibition” value was 9.6%.
On the same count and under the same terms, as for `CCc1ccc2c(c1)C1(NN=C(c3ccc(C)cc3)S1)C(=O)N2` (stereo not shown) [Compound 48, 5-ethyl-5′-(4-methylphenyl)-3′H-spiro[indole-3,2′-[1,3,4]thiadiazol]-2(1H)-one], the figure is 1.9%.
Take `Cc1ccc(C2=NNC3(S2)C(=O)Nc2ccc(C)cc23)cc1` (stereo not shown) [Compound 49, 5-methyl-5′-(4-methylphenyl)-3′H-spiro[indole-3,2′-[1,3,4]thiadiazol]-2(1H)-one]: the “% Inhibition” value is 3%.
Consider `Cc1ccc(C2=NNC3(S2)C(=O)Nc2ccccc23)cc1` (stereo not shown) [Compound 50, 5′-(4-methylphenyl)-3′H-spiro[indole-3,2′-[1,3,4]thiadiazol]-2(1H)-one], for which the “% Inhibition” value is on record as 3.7%.
In the case of `Cc1ccc(C2=NNC3(S2)C(=O)N(C)c2ccccc23)cc1` (stereo not shown) [Compound 51, 1-methyl-5′-(4-methylphenyl)-3′H-spiro[indole-3,2′-[1,3,4]thiadiazol]-2(1H)-one], the “% Inhibition” value amounted to 4.6%.

The same experiment, now with this note: positive control at 10 nM.
As to `CNC(=O)[C@H](Cc1ccccc1)NC(=O)[C@H](CC(C)C)[C@H](CSc1cccs1)C(=O)NO` [N2-{(2R)-2-[(1S)-1-Hydroxycarbamoyl-2-(thiophen-2-ylsulfanyl)-ethyl]-4-methyl-pentanoyl}-N-methyl-L-phenylalaninamide, reference compound], the inhibition at 0.01 µM was 40%.

Staying with this experiment, now noted: positive control at 20 nM.
On to `CNC(=O)[C@H](Cc1ccccc1)NC(=O)[C@H](CC(C)C)[C@H](CSc1cccs1)C(=O)NO` [N2-{(2R)-2-[(1S)-1-Hydroxycarbamoyl-2-(thiophen-2-ylsulfanyl)-ethyl]-4-methyl-pentanoyl}-N-methyl-L-phenylalaninamide, reference compound], for which the inhibition at 0.02 µM was determined as 60%.

Still in this experiment, the particulars now being: positive control at 200 nM.
Turning to `CNC(=O)[C@H](Cc1ccccc1)NC(=O)[C@H](CC(C)C)[C@H](CSc1cccs1)C(=O)NO` [N2-{(2R)-2-[(1S)-1-Hydroxycarbamoyl-2-(thiophen-2-ylsulfanyl)-ethyl]-4-methyl-pentanoyl}-N-methyl-L-phenylalaninamide, reference compound], the inhibition at 0.2 µM is 100%.

Still in this experiment, the particulars now being: positive control; read-out: Agg2 IC50.
`CNC(=O)[C@H](Cc1ccccc1)NC(=O)[C@H](CC(C)C)[C@H](CSc1cccs1)C(=O)NO` [N2-{(2R)-2-[(1S)-1-Hydroxycarbamoyl-2-(thiophen-2-ylsulfanyl)-ethyl]-4-methyl-pentanoyl}-N-methyl-L-phenylalaninamide, reference compound]: the pIC50 was 7.44.
